“Also recorded” adds a separate entry of the source. Values belong to the compound of their own block, whether it stands above or below them.
How the values were obtained:
[1] = system: MYC mRNA in MM cell lines; details: reported; cited from earlier work
DLBCL cell lines [2] = experiment: MTT proliferation assay, 72 h; type: cell-based, human; details: for IC50: Homo sapiens
Procedure: (§1) The activity of Formula 2 was evaluated in four mantle cell lymphoma (MCL), ten diffuse large B-cell lymphoma (DLBCL) established human cell lines, a set of multiple myeloma (MM) cell lines, three splenic marginal zone lymphoma (SMZL) cell lines and eight anaplastic large T-cell lymphoma (ALCL) cell lines. Cells were exposed to increasing doses of the compound for 72 hours.
(§2) The proliferation assay was performed using the following procedure. Cells were seeded into 96-well plates at the density of 104 per well. Formula 2 (Oncoethix SA, Lausanne, Switzerland) was dissolved in DMSO as a stock solution of 10 mM and divided in aliquots stored at −80° C. For each experiment, an aliquot of the stock solution was thawed and used within 2 to 3 days. Formula 2 was serially diluted in tissue culture media, added to cells (in five replicates) and incubated for 72 hours at 37° C. Control cells were treated with equal amounts of DMSO. The 3-(4,5-dimethylthiazol-2-yl)-2,5-diphenyltetrazolium bromide (MTT) (Sigma, Buchs, Switzerland) was prepared as a stock of 5 mg/mL in phosphate-buffered saline (PBS) and filter-sterilized. An amount of MTT solution equal to 0.5 mg/mL was then added to each well and incubated in the dark at 37° C. for 4 hours. Cells were then lysed with 25% sodium dodecylsulfate (SDS) lysis buffer and absorbance was read at 570 nm on a Beckman Coulter-AD340 instrument. Three independent experiments were run for each cell line. The doses corresponding to the IC50 were estimated by fitting a sigmoidal model through the dose response curve using the R statistical package (R: A Language and Environment for Statistical Computing, R Foundation for Statistical Computing, Vienna, Austria).

VAL = experiment: MTT proliferation assay, 72 h; type: cell-based, human
Procedure: as §1, §2

MCL cell lines = experiment: MTT proliferation assay, 72 h; type: cell-based, human; details: three MCL cell lines
Procedure: as §1, §2

MM cell lines [3] = experiment: MTT proliferation assay, 72 h; type: cell-based, human; details: all MM cell lines
Procedure: as §1, §2

Rec-1 = experiment: MTT proliferation assay, 72 h; type: cell-based; details: Homo sapiens, Rec1, Rec-1 (MCL), read-out: estimated IC50
Procedure: as §1, §2

SU-DHL-2 = experiment: MTT proliferation assay, 72 h; type: cell-based; details: Homo sapiens, SU-DHL-2 (DLBCL), read-out: estimated IC50
Procedure: as §1, §2

SU-DHL-7 = experiment: MTT proliferation assay, 72 h; type: cell-based; details: Homo sapiens, SU-DHL-7 (DLBCL), read-out: estimated IC50
Procedure: as §1, §2

Granta-519 = experiment: MTT proliferation assay, 72 h; type: cell-based; details: Homo sapiens, Granta-519 (MCL), read-out: estimated IC50
Procedure: as §1, §2

OCI-Ly7 = experiment: MTT proliferation assay, 72 h; type: cell-based; details: Homo sapiens, OCI-Ly7 (DLBCL), read-out: estimated IC50
Procedure: as §1, §2

SU-DHL-6 = experiment: MTT proliferation assay, 72 h; type: cell-based; details: Homo sapiens, SU-DHL-6 (DLBCL), read-out: estimated IC50
Procedure: as §1, §2

MM1S = experiment: MTT proliferation assay, 72 h; type: cell-based; details: Homo sapiens, MM1.S, MM1S (MM), read-out: estimated IC50
Procedure: as §1, §2

SU-DHL-4 = experiment: MTT proliferation assay, 72 h; type: cell-based; details: Homo sapiens, SU-DHL-4 (DLBCL), read-out: estimated IC50
Procedure: as §1, §2

Karpass 422 = experiment: MTT proliferation assay, 72 h; type: cell-based; details: Homo sapiens, Karpass 422 (DLBCL), read-out: estimated IC50
Procedure: as §1, §2

SU-DHL-5 = experiment: MTT proliferation assay, 72 h; type: cell-based; details: Homo sapiens, SU-DHL-5 (DLBCL), read-out: estimated IC50
Procedure: as §1, §2

RPMI8226 = experiment: MTT proliferation assay, 72 h; type: cell-based; details: Homo sapiens, RPMI-8226, RPMI8226 (MM), read-out: estimated IC50
Procedure: as §1, §2

MAVER-1 = experiment: MTT proliferation assay, 72 h; type: cell-based; details: Homo sapiens, Maver1, MAVER-1 (MCL), read-out: estimated IC50
Procedure: as §1, §2

JeKo-1 = experiment: MTT proliferation assay, 72 h; type: cell-based; details: Homo sapiens, JeKo-1 (MCL), read-out: estimated IC50
Procedure: as §1, §2

DoHH2 = experiment: MTT proliferation assay, 72 h; type: cell-based; details: Homo sapiens, DOHH-2, DoHH2 (DLBCL), read-out: estimated IC50
Procedure: as §1, §2

U-2932 = experiment: MTT proliferation assay, 72 h; type: cell-based; details: Homo sapiens, U2932, U-2932 (DLBCL), read-out: estimated IC50
Procedure: as §1, §2

U266 = experiment: MTT proliferation assay, 72 h; type: cell-based; details: Homo sapiens, U-266, U266 (MM), read-out: estimated IC50
Procedure: as §1, §2

DLBCL cell lines [4] = experiment: Cell death, propidium iodide flow cytometry; type: cell-based, human; details: 24 and 72 hours, 0.1-15 μM; SU-DHL-2 and DoHH2
Procedure: Cell death was evaluated as follows. […], harvested and washed once in PBS and then stained with propidium iodide (PI 1 μg/ml, Sigma) in PBS and analyzed using a FACScan flow cytometer (Becton Dickinson, Mountain View, Calif., USA). The analysis of the percentage of cell death was performed using CellQuest Pro software (Becton Dickinson).

ALCL cell lines = experiment: MTT proliferation assay; type: cell-based, human; details: eight ALCL cell lines
Procedure: as §1
as §2, with “An amount of MTT solution equal to 0.5 mg/mL was then added to each well and incubated in the dark at 37° C. for 4 hours.” left out, “Three independent experiments were run for each cell line. The doses corresponding to the IC50 were estimated by fitting a sigmoidal model through the dose response curve using the R statistical package (R: A Language and Environment for Statistical Computing, R Foundation for Statistical Computing, Vienna, Austria).” left out
The activity of Formula 2 was also evaluated in ALCL cell lines using the procedures described in Example 1. […]

MM cell lines [5] = experiment: % Annexin V positive cells; type: cell-based, human; details: doses at IC50, 24 hours
Procedure: FIG. 18 illustrates the % Annexin V positive cells obtained after doses of Formula 2 at IC50 and 24 hours.

[6] = system: c-MYC mRNA in DLBCL cell lines; experiment: c-MYC mRNA levels, real-time PCR; type: cell-based, human
Procedure: (§3) RNA was extracted using the RNA easy kit (Qiagen AG, Hombrechtikon, Switzerland). The concentration of total RNA was determined spectrophotometrically at 260 nm using a NanoDrop spectrometer (NanoDrop Technologies, Wilmington, Del., USA). One microgram of total RNA was reverse-transcribed using the Superscript First-Strand Synthesis System for real-time PCR kit (Invitrogen, Karlsruhe, Germany) according to the manufacturer's instructions. PCR amplification was performed using Fast SYBR Green Master Mix on a StepOnePlus real-time PCR System (Applied Biosystems, Foster City, Calif., USA). Primer sets (Table 2) were designed using the Primer3 software package (Rozen, S., Skaletsky, H. Primer3 on the WWW for general users and for biologist programmers. In: Misener, S., Krawetz, S. A., Eds. Methods in Molecular Biology, Vol. 132: Bioinformatics Methods and Protocols. Totowa, N.J., USA: Humana Press Inc., 2000, pp. 365-386). All samples were analyzed in triplicate. The relative quantity of the specific mRNA for each sample was calculated based on mean cycle threshold (Ct) values using the delta-delta Ct with a correction for experimental variations by normalization to the housekeeping gene GAPDH.

[7] = system: NFκB target genes in DLBCL cell lines; experiment: NFκB target gene expression; type: cell-based, human; details: two DLBCL cell lines
Procedure: as §3
BRD4 co-activates transcriptional activation of NF-B via specific binding to acetylated ReIA. […]

[8] = system: MYC mRNA in MM cell lines; experiment: MYC mRNA levels, real-time PCR; type: cell-based, human; details: RPMI8226 and MM1S cell lines, 24 hours
Procedure: as §3

SMZL cell lines = experiment: MTT proliferation assay; type: cell-based, human; details: three SMZL cell lines
Procedure: as §1
as §2, with “An amount of MTT solution equal to 0.5 mg/mL was then added to each well and incubated in the dark at 37° C. for 4 hours.” left out, “Three independent experiments were run for each cell line. The doses corresponding to the IC50 were estimated by fitting a sigmoidal model through the dose response curve using the R statistical package (R: A Language and Environment for Statistical Computing, R Foundation for Statistical Computing, Vienna, Austria).” left out
The activity of Formula 2 was also evaluated in SMZL cell lines using the procedures described in Example 1. […]

c-MYC in ALCL cell lines = experiment: c-MYC mRNA levels, real-time PCR; type: cell-based, human; details: 8 and 24 hours of treatment
Procedure: as §3
FIGS. 25A-25E illustrate c-MYC levels in ALCL cell lines after 8 hours of treatment with Formula 2. FIG. 26 illustrates c-MYC levels in ALCL cell lines after 24 hours of treatment with Formula 2.

MM cell lines [9] = experiment: Cell cycle analysis, flow cytometry; type: cell-based, human; details: two of the three MM cell lines
Procedure: (§4) Cell cycle analysis was performed using the following procedure. Cells were treated with DMSO or different doses of Formula 2 for 24 hours, harvested and washed once in PBS and then fixed in 80% ethanol at 4° C. for at least one hour. Cells were stained with propidium iodide (PI 50 μg/ml, Sigma) in PBS containing RNAse-A (75 kU/ml, Sigma) and analyzed for DNA content using a FACScan flow cytometer (Becton Dickinson). Cell cycle analysis was performed using the ModFit LT software package (Verity Software House, Inc., Topsham, Me., USA).
(§5) The activity of Formula 2 was also evaluated in MM cell lines. […] All the BRD factors were expressed (FIG. 14).

DLBCL cell lines [10] = experiment: Cell cycle analysis, flow cytometry; type: cell-based, human; details: five DLBCL cell lines, 24 h
Procedure: as §4
Not having observed the induction of massive cell death despite the important effect on cell viability, the effect of Formula 2 on the cell cycle was investigated (FIG. 6). […] FIG. 7 illustrates representative flow cytometry profiles of untreated control cells and SU-DHL-6 cells treated for 24 hours with 0.2 in μM of Formula 2.

MM cell lines [11] = experiment: Cell death, propidium iodide flow cytometry; type: cell-based, human
Procedure: Cell death was evaluated as follows. Cells were treated with DMSO or different doses of Formula 2 for 72 hours, harvested and washed once in PBS and then stained with propidium iodide (PI 1 μg/ml, Sigma) in PBS and analyzed using a FACScan flow cytometer (Becton Dickinson, Mountain View, Calif., USA). The analysis of the percentage of cell death was performed using CellQuest Pro software (Becton Dickinson).
as §5

Compound: Cc1sc2c(c1C)C(c1ccc(Cl)cc1)=N[C@@H](CC(=O)OC(C)(C)C)c1nnc(C)n1-2 [JQ1]
- MYC levels [1]: down-regulation of MYC

- IC50 (SU-DHL-2): 69 nM
- IC50 (SU-DHL-7): 132 nM
- IC50 (OCI-Ly7): 1390 nM
- IC50 (SU-DHL-6): 110 nM
- IC50 (MM1S): 59 nM
- IC50 (SU-DHL-4): 607 nM
- IC50 (Karpass 422): 277 nM
- IC50 (SU-DHL-5): 189 nM
- IC50 (RPMI8226): 700 nM
- IC50 (U266): 449 nM
Compound: Cc1sc2c(c1C)C(c1ccc(Cl)cc1)=N[C@@H](CC(=O)Nc1ccc(O)cc1)c1nnc(C)n1-2 [Formula 2, (S)-2-[4-(4-chlorophenyl)-2,3,9-trimethyl-6H-thieno[3,2-f][1,2,4]triazolo-[4,3-a][1,4]diazepin-6-yl]-N-(4-hydroxyphenyl)acetamide]
- IC50 (DLBCL cell lines [2]; seven very sensitive DLBCL cell lines): < 300 nM
- IC50 (DLBCL cell lines [2]; two DLBCL cell lines): 600 to 1400 nM
- cell viability (DLBCL cell lines [2]; all the DLBCL cell lines): dose-dependent decrease in cell viability
- IC50 (VAL; Homo sapiens, VAL (DLBCL), MTT, 72 h, read-out: estimated IC50): > 12700 nM
- reduction in cell proliferation (VAL; VAL, doses of up to 10 μM): over 40%
- IC50 (MCL cell lines; Homo sapiens): 1200 to 2700 nM
- cell viability (MCL cell lines): dose-dependent decrease in cell viability
- IC50 (MM cell lines [3]; Homo sapiens): 60 to 700 nM
- cell viability (MM cell lines [3]): reduction in cell viability in all the cell lines
- IC50 (Rec-1): 1220 nM
- IC50 (Granta-519): > 15000 nM
- IC50 (MAVER-1): 1220 nM
- IC50 (JeKo-1): 2790 nM
- IC50 (DoHH2): 90 nM
- IC50 (U-2932): 255 nM
- cell death (DLBCL cell lines [4]): induces cell death only in a small percentage of the cell
- cell viability (ALCL cell lines): dose-dependent decrease in cell viability
- cytostatic versus cytotoxic effect (% Annexin V positive cells) (MM cell lines [5]): cytostatic effect
- c-MYC mRNA levels ([6]; six DLBCL cell lines, 24 hours of treatment): down-regulated in five of the six cell lines
- c-MYC levels ([6]; three DLBCL cell lines, 1 hour of treatment): down-regulation of c-MYC in two of three DLBCL cell lines
- NFκB target genes expression [7]: partial down-regulation of NFκB target genes
- MYC mRNA levels [8]: significant reduction of MYC mRNA levels in a dose-dependent manner; also recorded: down-regulation of c-MYC in a dose-dependent manner
- cell viability (SMZL cell lines): dose-dependent decrease in cell viability
- c-MYC levels (c-MYC in ALCL cell lines): down-regulation of c-MYC in a dose-dependent manner
- cell cycle analysis, S-phase (MM cell lines [9]): significant reduction of S-phase
- effect on the cell cycle (DLBCL cell lines [10]): induced a G1-arrest in a dose-dependent manner
- cell death (MM cell lines [11]): did not show an important increase of cell death

Source: US20140018353A1, “METHOD OF TREATING B-CELL MALIGNANT CANCERS AND T-CELL MALIGNANT CANCERS USING THIENOTRIAZOLODIAZEPINE COMPOUNDS” (Oncoethix SA, priority 2012, published 2014)
